Values quoted from earlier work in publication PMC10010643 (Cancer Chemotherapy and Pharmacology, 2023).

Legend:
[1] = tested on: galectin-3; conditions: cited from earlier work
[2] = tested on: galectin-3; design: method as in PMID 33214209; conditions: inhaled; cited from earlier work
[3] = design: method as in PMID 36154172; conditions: cited from earlier work

OC[C@H]1O[C@@H](S[C@@H]2O[C@H](CO)[C@H](O)[C@H](n3cc(-c4cccc(F)c4)nn3)[C@H]2O)[C@H](O)[C@@H](n2cc(-c3cccc(F)c3)nn2)[C@H]1O [GB0139]
Binding affinity for galectin-3 [1]: high binding affinity | Galectin-3 expression [2]: suppressed galectin-3 expression | Plasma biomarkers associated with IPF disease progression [2]: decreased plasma biomarkers associated with IPF disease progression | Elimination if administered systemically [3]: prompt elimination | Intestinal absorption [3]: poor intestinal absorption
